The text below walks through data of patent US20260265233A1, “BENZOTHIOPHENE DERIVATIVES AS RXFP1 AGONISTS” (BRISTOL-MYERS SQUIBB COMPANY, priority 2021, published 2026).

The target of the test is T1, human RXFP1 (Homo sapiens, UniProt Q9HBX9).
T1 construct: expressed in transfected cells
T1 sequence (Q9HBX9 1-757): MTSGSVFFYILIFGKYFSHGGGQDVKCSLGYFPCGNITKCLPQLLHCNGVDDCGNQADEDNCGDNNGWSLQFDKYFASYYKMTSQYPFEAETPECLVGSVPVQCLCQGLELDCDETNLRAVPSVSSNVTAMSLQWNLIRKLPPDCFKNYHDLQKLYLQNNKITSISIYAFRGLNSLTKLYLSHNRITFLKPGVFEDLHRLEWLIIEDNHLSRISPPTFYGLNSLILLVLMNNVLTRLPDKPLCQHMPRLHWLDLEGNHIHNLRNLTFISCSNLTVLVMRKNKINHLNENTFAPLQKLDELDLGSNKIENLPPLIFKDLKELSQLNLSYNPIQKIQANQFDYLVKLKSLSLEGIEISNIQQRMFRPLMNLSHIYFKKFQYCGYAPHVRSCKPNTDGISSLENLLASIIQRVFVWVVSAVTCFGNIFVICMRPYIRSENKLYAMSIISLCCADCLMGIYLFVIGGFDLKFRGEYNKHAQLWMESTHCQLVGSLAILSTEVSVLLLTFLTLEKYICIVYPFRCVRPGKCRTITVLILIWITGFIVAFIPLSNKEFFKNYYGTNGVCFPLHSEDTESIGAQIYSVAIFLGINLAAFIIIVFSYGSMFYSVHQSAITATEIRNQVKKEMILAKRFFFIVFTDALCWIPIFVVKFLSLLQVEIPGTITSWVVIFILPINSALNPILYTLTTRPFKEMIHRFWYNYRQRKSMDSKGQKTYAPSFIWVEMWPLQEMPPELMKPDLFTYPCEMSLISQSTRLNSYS
In words: hRXFP1 HEK293 cAMP assay (HTRF). The format is cell-based. The settings on record: HEK293 cells stably expressing human RXFP1; 30 min at rt; intracellular cAMP by HTRF. In short, it runs like this:
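HEK293 cells stably expressing human RXFP1 treated 30 min at rt with compound (0.010 nM to 50 μM, 2% DMSO) in HBSS/HEPES buffer with 0.5 mM IBMX. Intracellular cAMP measured by HTRF (665/590 nm ratio) against a cAMP standard curve; potency fitted by 4-parameter logistic.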
One may read the EC50 as the midpoint of the concentration-response curve. A higher EC50 goes with a less potent agent. For the molecule `COc1ccc(-c2ccc(N3CCOCC3)nc2)cc1C(=O)Nc1c(C(=O)Nc2ccc(F)c(C(F)(F)F)c2)sc2cc(C(F)(F)F)ccc12` [Example 127, N-(4-fluoro-3-(trifluoromethyl)phenyl)-3-(2-methoxy-5-(6-morpholino-pyridin-3-yl)benzamido)-6-(trifluoromethyl) benzo[b] thiophene-2-carboxamide], the EC50 was 254 nM. In other words, the sub-micromolar range.

In turn, `COc1ccc(-c2cc(C(=O)O)ccc2F)cc1C(=O)Nc1c(C(=O)Nc2ccc(F)c(C(F)(F)F)c2)sc2cc(C(F)(F)F)ccc12` [Example 128, 6-fluoro-3′-((2-((4-fluoro-3-(trifluoromethyl)phenyl)carbamoyl)-6-(trifluoromethyl)benzo[b]thiophen-3-yl)carbamoyl)-4′-methoxy-[1,1′-biphenyl]-3-carboxylic acid] gave an EC50 of 237 nM.

Regarding `COc1ccc(C(=O)N2CCO[C@@H](CO)C2)cc1C(=O)Nc1c(C(=O)Nc2ccc(F)c(C(F)(F)F)c2)sc2cc(C(F)(F)F)ccc12` [Example 129, (R)-N-(4-fluoro-3-(trifluoromethyl)phenyl)-3-(5-(2-(hydroxymethyl)morpholine-4-carbonyl)-2-methoxy-benzamido)-6-(trifluoromethyl) benzo[b] thiophene-2-carboxamide], the midpoint of the response, the EC50, lay at 444 nM.

Take `COc1ccc(C(=O)N2CC3(C2)CS(=O)(=O)C3)cc1C(=O)Nc1c(C(=O)Nc2ccc(F)c(C(F)(F)F)c2)sc2cc(C(F)(F)F)ccc12` [Example 130, 3-(5-(2,2-dioxido-2-thia-6-azaspiro[3.3]heptane-6-carbonyl)-2-methoxy-benzamido)-N-(4-fluoro-3-(trifluoromethyl)phenyl)-6-(trifluoromethyl) benzo[b] thiophene-2-carboxamide]: the EC50 was found to be 279 nM.

For `COc1ccc(C(=O)NCC2(S(C)(=O)=O)CC2)cc1C(=O)Nc1c(C(=O)Nc2ccc(F)c(C(F)(F)F)c2)sc2cc(C(F)(F)F)ccc12` [Example 131, N3-(2-((4-fluoro-3-(trifluoromethyl)phenyl)carbamoyl)-6-(trifluoromethyl)benzo[b]thiophen-3-yl)-4-methoxy-N1-((1-(methylsulfonyl)cyclopropyl)methyl) isophthalamide], the EC50 turned out to be 51.2 nM.

The molecule `COc1ccc(C(=O)N2CCC(O)CC2)cc1C(=O)Nc1c(C(=O)Nc2ccc(F)c(C(F)(F)F)c2)sc2cc(C(F)(F)F)ccc12` [Example 132, N-(4-fluoro-3-(trifluoromethyl)phenyl)-3-(5-(4-hydroxy-piperidine-1-carbonyl)-2-methoxy-benzamido)-6-(trifluoromethyl) benzo[b] thiophene-2-carboxamide] yielded a concentration for a half-maximal effect (EC50) of 135 nM.

Turning to `COc1ccc(C2CCN(C(=O)C3CC3(F)F)C2)cc1C(=O)Nc1c(C(=O)Nc2ccc(F)c(C(F)(F)F)c2)sc2cc(C(F)(F)F)ccc12` (stereo not drawn) [Example 134, 3-(5-(1-(2,2-difluorocyclo-propane-1-carbonyl)pyrrolidin-3-yl)-2-methoxy-benzamido)-N-(4-fluoro-3-(trifluoromethyl)phenyl)-6-(trifluoromethyl) benzo[b] thiophene-2-carboxamide], the midpoint of the response, the EC50, lay at 634 nM.

`COc1ccc(C2CCN(C(=O)C3(C)COC3)C2)cc1C(=O)Nc1c(C(=O)Nc2ccc(F)c(C(F)(F)F)c2)sc2cc(C(F)(F)F)ccc12` (stereo not drawn) [Example 135, N-(4-fluoro-3-(trifluoromethyl)phenyl)-3-(2-methoxy-5-(1-(3-methyloxetane-3-carbonyl)pyrrolidin-3-yl)benzamido)-6-(trifluoromethyl) benzo[b] thiophene-2-carboxamide] yielded an EC50 of 488 nM. The EC50 values of the last two molecules are within 1.5-fold of each other.

`COc1ccc(C2CCN(C(=O)CC(C)(C)O)C2)cc1C(=O)Nc1c(C(=O)Nc2ccc(F)c(C(F)(F)F)c2)sc2cc(C(F)(F)F)ccc12` (stereo not drawn) [Example 136, N-(4-fluoro-3-(trifluoromethyl)phenyl)-3-(5-(1-(3-hydroxy-3-methylbutanoyl)pyrrolidin-3-yl)-2-methoxy-benzamido)-6-(trifluoromethyl) benzo[b] thiophene-2-carboxamide] showed an EC50 of 514 nM.
